{"source": "patent US6992193B2", "about": "“Sulfonylamino phenylacetamide derivatives and methods of their use” (Adolor Corporation, priority 2003, dated 2006)", "key": {"[1]": {"molecular_target": "T1, cloned human κ opioid receptor (Homo sapiens, UniProt P41145)", "T1 construct": "expressed in transfected cells", "T1 sequence (P41145 whole entry)": "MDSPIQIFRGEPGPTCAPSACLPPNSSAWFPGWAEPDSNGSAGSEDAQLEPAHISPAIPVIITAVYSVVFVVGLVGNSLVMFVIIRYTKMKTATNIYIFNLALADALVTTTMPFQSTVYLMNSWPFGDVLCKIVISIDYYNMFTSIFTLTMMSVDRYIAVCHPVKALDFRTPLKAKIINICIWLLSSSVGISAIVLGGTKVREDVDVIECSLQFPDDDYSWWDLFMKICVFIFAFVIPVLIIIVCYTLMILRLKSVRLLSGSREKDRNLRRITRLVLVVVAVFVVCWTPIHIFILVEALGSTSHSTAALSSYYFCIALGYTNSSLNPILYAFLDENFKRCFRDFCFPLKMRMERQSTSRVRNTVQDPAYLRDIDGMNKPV", "experiment": "[3H]diprenorphine binding to cloned human κ opioid receptor", "experimental": "(§1) IC50 values were obtained by nonlinear analysis of the data using GraphPad Prism version 3.00 for Windows (GraphPad Software, San Diego). Ki values were obtained by Cheng-Prusoff corrections of IC50 values.\n(§2) After dilution in buffer A and homogenization as before, membrane proteins (10-80 μg) in 250 μL were added to mixtures containing test compound and [^3H]diprenorphine (0.5 to 1.0 nM, 40,000 to 50,000 dpm) in 250 μL of buffer A in 96-well deep-well polystyrene titer plates (Beckman). After incubation at room temperature for one hour, the samples were filtered through GF/B filters that had been presoaked in a solution of 0.5% (w/v) polyethylenimine and 0.1% (w/v) bovine serum albumin in water. The filters were rinsed 4 times with 1 mL of cold 50 mM Tris HCl, pH 7.8 and radioactivity remaining on the filters determined by scintillation spectroscopy. Nonspecific binding was determined by the minimum values of the titration curves and was confirmed by separate assay wells containing 10 μM naloxone.\n(§3) To determine the equilibrium dissociation constant for the inhibitors (Ki), radioligand bound (cpm) in the presence of various concentrations of test compounds was measured. […] The nonlinear regression fit was performed using the program Prism® (GraphPad Software, San Diego, Calif.)."}, "[2]": {"molecular_target": "T2, cloned human κ receptors (Homo sapiens, UniProt P41145)", "T2 construct": "expressed in transfected cells", "T2 sequence (P41145 whole entry)": "as above", "experiment": "[35S]GTPγS binding stimulation, membranes containing cloned human κ receptors", "type": "biochemical", "conditions": "half-maximal stimulation of [35S]GTPγS binding, cloned human κ receptor", "experimental": "The potencies of the agonists were assessed by their abilities to stimulate [^35S]GTPγS binding to membranes containing the cloned human κ receptors.\nTo determine the EC50 value, which was the concentration to give half-maximal stimulation of [^35S]GTPγS binding, the amount of [^35S]GTPγS bound in the presence of various concentrations of agonists was measured. The EC50 value was then determined."}, "[3]": {"molecular_target": "T3, cloned human μ opioid receptor (Homo sapiens, UniProt P35372)", "T3 construct": "expressed in transfected cells", "T3 sequence (P35372 whole entry)": "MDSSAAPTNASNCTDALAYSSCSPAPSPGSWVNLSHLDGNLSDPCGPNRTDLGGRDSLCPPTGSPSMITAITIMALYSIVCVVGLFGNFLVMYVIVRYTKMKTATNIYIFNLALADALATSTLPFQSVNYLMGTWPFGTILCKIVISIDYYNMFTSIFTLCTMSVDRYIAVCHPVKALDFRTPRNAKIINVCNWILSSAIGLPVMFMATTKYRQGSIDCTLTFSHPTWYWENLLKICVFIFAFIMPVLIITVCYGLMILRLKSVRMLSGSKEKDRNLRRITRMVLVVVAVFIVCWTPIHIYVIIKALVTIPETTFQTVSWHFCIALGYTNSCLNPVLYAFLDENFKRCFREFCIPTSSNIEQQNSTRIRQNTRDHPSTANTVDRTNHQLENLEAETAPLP", "experiment": "[3H]diprenorphine binding to cloned human μ opioid receptor", "experimental": "as §1, §2\nas §3, with “Calif.). The Ki values were then determined from the […] values by the following equation, [formula] • where [ligand] is the concentration of radioligand; and • Kd is the equilibrium dissociation constant for the radioligand.” for “Calif.).”"}, "[4]": {"molecular_target": "T4, cloned human δ opioid receptor (Homo sapiens, UniProt P41143)", "T4 construct": "expressed in transfected cells", "T4 sequence (P41143 whole entry)": "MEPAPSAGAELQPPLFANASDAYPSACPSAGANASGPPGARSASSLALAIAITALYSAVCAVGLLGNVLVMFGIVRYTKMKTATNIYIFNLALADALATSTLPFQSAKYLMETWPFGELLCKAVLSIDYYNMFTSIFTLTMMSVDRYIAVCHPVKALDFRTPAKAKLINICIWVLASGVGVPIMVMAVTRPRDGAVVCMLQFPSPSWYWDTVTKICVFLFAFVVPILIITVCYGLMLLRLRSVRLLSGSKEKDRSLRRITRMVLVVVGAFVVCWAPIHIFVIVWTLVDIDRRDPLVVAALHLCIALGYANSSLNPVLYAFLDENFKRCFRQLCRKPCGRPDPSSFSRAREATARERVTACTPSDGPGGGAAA", "experiment": "[3H]diprenorphine binding to cloned human δ opioid receptor", "experimental": "as §1, §2\nas §3, with “Calif.). The Ki values were then determined from the […] values by the following equation, [formula] • where [ligand] is the concentration of radioligand; and • Kd is the equilibrium dissociation constant for the radioligand.” for “Calif.).”"}, "[5]": {"molecular_target": "T5, CYP2D6 (Homo sapiens, UniProt P10635)", "T5 construct": "purchased BD Biosciences", "T5 sequence (P10635 whole entry)": "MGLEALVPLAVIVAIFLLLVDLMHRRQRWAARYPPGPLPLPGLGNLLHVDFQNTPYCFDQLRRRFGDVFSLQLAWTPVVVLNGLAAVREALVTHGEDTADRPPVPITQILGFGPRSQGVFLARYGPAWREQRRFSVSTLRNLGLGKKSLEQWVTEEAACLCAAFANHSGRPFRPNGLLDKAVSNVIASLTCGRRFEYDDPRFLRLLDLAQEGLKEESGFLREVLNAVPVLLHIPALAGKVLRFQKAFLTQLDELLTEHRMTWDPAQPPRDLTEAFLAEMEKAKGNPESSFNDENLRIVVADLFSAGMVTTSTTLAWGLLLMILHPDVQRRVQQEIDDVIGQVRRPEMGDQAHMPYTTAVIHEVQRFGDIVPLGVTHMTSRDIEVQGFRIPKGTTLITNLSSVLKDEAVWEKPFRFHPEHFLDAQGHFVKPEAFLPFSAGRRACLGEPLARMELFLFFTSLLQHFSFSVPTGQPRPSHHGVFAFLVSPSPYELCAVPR", "experiment": "Inhibition of CYP2D6 catalyzed conversion of MAMC to HAMC", "type": "in vitro ADME", "conditions": "MAMC to HAMC conversion; read-out: IC50(CYP2D6)", "experimental": "Inhibition of CYP2D6 Catalyzed Conversion of MAMC to HAMC\nMicrosomes containing baculovirus expressed human recombinant CYP2D6 and MAMC were purchased from BD Biosciences. The method is a modification of the method provided by BD Biosciences.\n• Assay Buffer=50 mM KPO4, 15 μg/mL NADP^+, 0.30 mg/mL glucose-6-phosphate, 0.20 mg/mL MgCl2, 0.96 U/mL glucose-6-phosphate dehydrogenase, 2.5 μM MAMC, pH 7.4. • Dilution Buffer=50 mM KPO4, pH 7.4 • Enzyme Buffer=150 mM KPO4, pH 7.4 • Stop Solution=80% acetonitrile, 20% 0.5 M Tris Base Procedure:\nThe assays were done in black 96 well plates (VWR Cat# 22221-572) and contained: 40 μL assay buffer, 10 μL test compound in dilution buffer and 50 μL of 10-15 pmol/mL CYP2D6 in enzyme buffer. Final concentrations: (100 mM KPO4, pH 7.4, 7.9 μM NADP^+, 0.36 mM glucose-6-phosphate, 0.4 mM MgCl2, 0.38 U/mL glucose-6-phosphate dehydrogenase, 1 μM MAMC (BD Biosciences), 0.5 pmol CYP2D6 (BD Biosciences))\nFor large experiments, assay buffer and test compound were added using the MiniTrak IV (Packard Biosciences), otherwise they were added using 25-250 μL and 5-100 μL 8 channel electronic pipettors (BioHit). CYP2D6 was added using 25-250 μL 8 channel electronic pipettor.\nTitrations are done in either 96 well deep-well plates (Beckman) or 96 well microtiter plates (Costar), an initial dilution in dilution buffer is prepared from stock solutions in DMSO to start either 8 (1:6) or 12 (1:3.15) serial dilutions. For 1:6 dilutions, 50 μL for each dilution is transferred to 250 μL dilution buffer. For 1:3.15 dilutions, 50 μL for each dilution is transferred to 108 μL dilution buffer. Further details on concentrations will be provided in each experiment. Titrations are done using either 25-250 μL 8 channel electronic pipettor, 30-300 μL 12 channel manual pipettor (Spectrum), or the Multiprobe II. For screening, dilution plates are prepared in dilution buffer in 96 well microtiter plates from masterplates in 100% DMSO using the Multiprobe II or MiniTrak IV. After assay buffer and test compound has been added, the plates and the enzyme buffer are prewarmed at 37° C. for 15 minutes. After prewarming, CYP2D6 is added to then enzyme buffer and then added to the assay plate using 25-250 μL 8 channel electronic pipettor and the plates are incubated for 15 minutes at 37° C. After incubation, 50 μL stop solution is added using 25-250 μL 8 channel electronic pipettor. The plates are then counted on the Fusion (Packard Biosciences) for 4 sec/well using and excitation filter of 390 nm and an emission filter of 460 nm, intensity setting of 1, high detector sensitivity.\nNon-specific relative fluorescent units (RFU) are determined in the presence of 10 μM quinidine in wells A1, B1, and C1 of each plate and total RFU determined in wells D1, E1, F1 in the absence of test compound. Specific HAMC production is the difference between total and nonspecific. For each compound, a percent inhibition of HAMC production is calculated by: % I=(1−(A/B))*100 • where A=cpm specifically bound for test compound • B=cpm specifically bound in the absence of test compound For experiments where the plates are registered in the biological database, % I is determined automatically by the biological database. Titrations\nIC50's are calculated using nonlinear regression to a one-site model using GraphPad Prism or a VB algorithm fitting the data to that equation."}, "[6]": {"molecular_target": "CYP2C9 (Homo sapiens, UniProt P11712)", "sequence (P11712 whole entry)": "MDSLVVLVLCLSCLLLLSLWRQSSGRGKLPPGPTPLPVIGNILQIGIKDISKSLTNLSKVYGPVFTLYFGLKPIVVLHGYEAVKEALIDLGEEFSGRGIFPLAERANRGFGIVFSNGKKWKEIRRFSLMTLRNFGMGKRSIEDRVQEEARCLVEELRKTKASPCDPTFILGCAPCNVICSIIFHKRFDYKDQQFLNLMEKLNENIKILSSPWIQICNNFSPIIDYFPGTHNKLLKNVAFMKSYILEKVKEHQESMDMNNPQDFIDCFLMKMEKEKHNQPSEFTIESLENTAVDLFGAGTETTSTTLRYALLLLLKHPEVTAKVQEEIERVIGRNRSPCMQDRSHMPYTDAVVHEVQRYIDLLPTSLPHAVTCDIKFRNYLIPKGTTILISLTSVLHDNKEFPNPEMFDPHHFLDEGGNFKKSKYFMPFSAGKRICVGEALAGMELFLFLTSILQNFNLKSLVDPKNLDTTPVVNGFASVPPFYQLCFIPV", "experiment": "Inhibition of CYP2C9 conversion of dibenzylfluorescein to fluorescein", "type": "in vitro ADME", "conditions": "DBF to fluorescein conversion; read-out: IC50(CYP2C9)", "experimental": "(§4) Inhibition of CYP2C9 and CYP3A4\n(§5) These assays were carried out as described using CYP2C9 and CYP3A4 conversion of dibenzylfluorescein (DBF) to fluorescein (F)."}, "[7]": {"molecular_target": "CYP3A4 (Homo sapiens, UniProt P08684)", "sequence (P08684 whole entry)": "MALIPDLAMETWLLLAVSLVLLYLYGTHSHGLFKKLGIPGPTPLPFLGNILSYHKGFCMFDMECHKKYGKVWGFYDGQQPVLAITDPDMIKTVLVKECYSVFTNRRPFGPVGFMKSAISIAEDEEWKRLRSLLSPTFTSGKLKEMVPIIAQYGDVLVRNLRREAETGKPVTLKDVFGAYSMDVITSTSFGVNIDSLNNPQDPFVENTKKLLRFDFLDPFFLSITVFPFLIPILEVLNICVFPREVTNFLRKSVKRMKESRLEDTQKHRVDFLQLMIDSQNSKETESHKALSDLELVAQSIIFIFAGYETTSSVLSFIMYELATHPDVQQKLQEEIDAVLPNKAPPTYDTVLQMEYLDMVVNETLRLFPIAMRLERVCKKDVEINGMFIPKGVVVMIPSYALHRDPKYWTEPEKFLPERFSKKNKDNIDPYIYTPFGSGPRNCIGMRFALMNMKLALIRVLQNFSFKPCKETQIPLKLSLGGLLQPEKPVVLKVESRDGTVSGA", "experiment": "Inhibition of CYP3A4 conversion of dibenzylfluorescein to fluorescein", "type": "in vitro ADME", "conditions": "DBF to fluorescein conversion; read-out: IC50(CYP3A4)", "experimental": "as §4, §5"}, "[8]": {"system": "cytochrome P450 enzymes (CYP2D6, CYP3A4, CYP2C9)", "experiment": "Overall evaluation of inhibition of major drug metabolizing hepatic cytochrome P450 enzymes", "type": "in vitro ADME, human"}}}
{"smiles": "CS(=O)(=O)NCc1ccc(CC(=O)N2CCCC[C@H]2CN2CC[C@H](O)C2)cc1.O=C(O)C(F)(F)F", "note": "[Example 29, N-[4-(2-{2-[3-(S)-hydroxy-pyrrolidin-1-ylmethyl]-(S)-piperidin-1-yl}-2-oxo-ethyl)-benzyl]-methanesulfonamide trifluoroacetate]", "values": [{"measurement": "Ki", "setting": "[1]", "value": 0.0021, "unit": "µM"}, {"measurement": "EC50", "setting": "[2]", "value": 0.027, "unit": "µM"}, {"measurement": "Ki", "setting": "[3]", "value": "> 3", "unit": "µM"}, {"measurement": "Ki", "setting": "[4]", "value": "> 3", "unit": "µM"}, {"measurement": "IC50", "setting": "[5]", "value": "> 10", "unit": "µM"}, {"measurement": "IC50", "setting": "[6]", "value": "> 10", "unit": "µM"}, {"measurement": "IC50", "setting": "[7]", "value": "> 10", "unit": "µM"}, {"measurement": "activity toward the cytochrome P450 (summary in words)", "setting": "[8]", "value": "metabolically stable in regard to their activity toward the cytochrome P450"}]}
